Assay results reported in paper PMC5193077, “An Allosteric Potentiator of the Dopamine D1 Receptor Increases Locomotor Activity in Human D1 Knock-In Mice without Causing Stereotypy or Tachyphylaxis” (The Journal of Pharmacology and Experimental Therapeutics, 2017).
Structures can show the parent of a compound that is named as a salt. One block for each molecule: values may come before it.

Tests used:
hD1 mice [1] = assay: Locomotor activity (LMA) in hD1 mice; format: in vivo, mouse; conditions: hD1 mice; for Shape of LMA dose-response curve: DETQ up to 240 mg/kg
From the text: Male hD1 mice, 8–10 weeks old (weighing 18 to 25 g at the time of the experiment), were used. Monitoring of mouse LMA took place in transparent plastic shoebox cages having dimensions of 45 × 25 × 20 cm, with a 1-cm depth of wood chips for absorbent bedding, and covered with a ventilated filtered plastic cage top.
Cages were placed in a rectangular frame containing a grid of 12 photocell beams in an 8 × 4 configuration (Kinder Scientific, Poway, CA) that were positioned 2.5 cm from the floor of the cage for the detection of body movements (ambulations), which were recorded by computer for analysis. Mice were placed inside individual LMA boxes for 1 hour during an acclimation period. Mice were then dosed with test compounds (oral or subcutaneous) and were replaced inside individual LMA boxes for the start of LMA. Photocell activity (total ambulations) was collected for 60 minutes using software from Hamilton Kinder (Poway, CA).
Calculation of data based on total ambulations was done using Excel (Microsoft, Redmond, WA). Graphing and statistical analysis of data were done using one-way analysis of variance followed by Dunnett’s multiple comparison test using GraphPad Prism.

human D1 receptor [2] = molecular target: T1, human D1 receptor (Homo sapiens, UniProt P21728); assay: cAMP response in HEK293 cells stably expressing the human D1 receptor; format: cell-based; conditions: with 12 nM dopamine; % of window between EC20 dopamine and maximum dopamine response
T1 sequence (P21728 whole entry): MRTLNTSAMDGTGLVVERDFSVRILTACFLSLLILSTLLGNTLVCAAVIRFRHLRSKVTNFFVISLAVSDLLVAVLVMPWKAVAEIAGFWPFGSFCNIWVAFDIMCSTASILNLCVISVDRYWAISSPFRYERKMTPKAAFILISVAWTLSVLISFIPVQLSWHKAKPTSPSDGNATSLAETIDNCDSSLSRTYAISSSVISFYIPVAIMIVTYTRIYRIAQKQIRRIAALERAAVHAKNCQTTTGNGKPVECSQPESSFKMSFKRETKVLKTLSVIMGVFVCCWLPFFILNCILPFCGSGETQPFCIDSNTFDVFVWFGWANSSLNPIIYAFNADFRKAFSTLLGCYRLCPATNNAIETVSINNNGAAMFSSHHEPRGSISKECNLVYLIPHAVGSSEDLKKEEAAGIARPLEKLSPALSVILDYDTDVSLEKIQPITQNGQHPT

human D1 receptor [3] = molecular target: T1, human D1 receptor; assay: D1 receptor internalization (PathHunter, DiscoveRx)
hD1 mice [4] = assay: Video-tracking of horizontal motion, rearing and grooming in hD1 mice; format: in vivo, mouse
From the text: The apparatus for the video-tracking assessment experiment included 12 custom-built video-tracking observation chambers and the HomeCageScan (CleverSys, Reston, VA) software system. The chambers, measuring (in inches) 8 width × 10 length × 8 height, consisted of two end walls, a back wall, a top, and a floor constructed of ¼-in. translucent white acrylic, and one side (front) constructed of clear acrylic. LED strip lighting was placed below the chamber for illumination. A color video camera (640 × 480, 30 frames per second) was placed in front of each chamber to record behavior from a side view. The chambers were located in large sound-attenuating chambers to reduce ambient room noise and isolate lighting. The cameras were connected in groups of four to a quad multiplexer (model NVQC-42N; Nuvico, Englewood, NJ), with each multiplexer connected to its own computer, which then recorded each session to an MPEG file.
At the end of the experiment the files were batch-analyzed by a computer running the CleverSys CageScan video-tracking software. This software can recognize and quantify several different behaviors, including LMA, grooming, rearing, immobility, and feeding behaviors. The current experiment examined behavior in a novel open-field environment rather than home-cage activity, which limited behaviors of interest to LMA, grooming, and rearing.
For HomeCageScan behavioral phenotyping, male D1 knock-in mice (8–12 weeks, 20–25 g body weight) were placed into the observation chambers for a 60-minute habituation session. […] All behavioral activity was monitored and scored by the HomeCageScan system.

hD1 and wild-type mice = assay: Seizure observation in mice; format: in vivo, mouse; conditions: higher doses, unpublished observation
hD1 mice [5] = assay: Locomotor activity (LMA) in hD1 mice; format: in vivo, mouse; conditions: nonhabituated hD1 mice, 30 min pretreatment
[6] = with EC20 dopamine, 0% = EC20 dopamine response, 100% = maximum dopamine response

Structure (SMILES): Oc1cc2c(cc1O)[C@H]1c3ccccc3CN[C@@H]1CC2 (racemic) [dihydrexidine, reference compound]
- Shape of LMA dose-response curve (hD1 mice [1]): bell-shaped curves

- Top, cAMP, potentiator mode (human D1 receptor [2]): 121.0%
- Pathway Preference cAMP/Internalization (human D1 receptor [3]; RA for cAMP divided by RA for internalization): 6.6
- RA, Internalization (human D1 receptor [3]; top divided by EC50, with 407 nM dopamine): 7.78
- Bottom, D1 receptor internalization (human D1 receptor [3]; [6]): −12.8%
- Top, D1 receptor internalization (human D1 receptor [3]; [6]): 112.0%
Structure (SMILES): Cl.NC[C@@H]1O[C@H](C23CC4CC(CC(C4)C2)C3)Cc2c1ccc(O)c2O [A-77636, (1R)-3-(1-adamantyl)-1-(aminomethyl)-3,4-dihydro-1H-isochromene-5,6-diol;hydrochloride, reference compound]
- LMA response on repeated once-a-day dosing (hD1 mice [1]; once daily for 4 days): completely abolished by day 2
- Shape of LMA dose-response curve (hD1 mice [1]): bell-shaped curves
- Horizontal locomotion and rearing (hD1 mice [4]): increase in horizontal locomotion and rearing at lower doses

Structure (SMILES): CCCc1cc2c(s1)CN[C@@H]1CCc3cc(OC(C)=O)c(OC(C)=O)cc3[C@@H]21 [ABT-431, adrogolide hydrochloride]
- Seizures (hD1 and wild-type mice): induced seizures

Structure (SMILES): CN1CCc2cc(Cl)c(O)cc2[C@H]2c3ccccc3CC[C@@H]21 [SCH39166, (6aS,13bR)-11-chloro-7-methyl-5,6,6a,8,9,13b-hexahydronaphtho[1,2-a][3]benzazepin-12-ol]
- Dose that lowered DETQ-stimulated activity (hD1 mice [5]): 0.03 mg/kg
- Dose that lowered basal exploratory activity (hD1 mice [5]): 0.01 mg/kg

Structure (SMILES): C=CCN1CCc2c(cc(O)c(O)c2Cl)C(c2ccccc2)C1 (stereo not drawn) [SKF 82958, 9-chloro-5-phenyl-3-prop-2-enyl-1,2,4,5-tetrahydro-3-benzazepine-7,8-diol]
- Shape of LMA dose-response curve (hD1 mice [1]): bell-shaped curves
- Grooming (index of stereotyped behavior) (hD1 mice [4]): supplanted by grooming at higher doses
- Horizontal locomotion and rearing (hD1 mice [4]): increase in horizontal locomotion and rearing at lower doses
